Assay [1] has as its target Recombinant human JAK2 kinase domain protein (Residues 812-1132) (Homo sapiens, UniProt O60674). Briefly: JAK2 biochemical assay (LabChip mobility shift, Ki).
In assay [2] the test system is IL-13-stimulated STAT6 phosphorylation in human lung bronchial epithelial BEAS-2B cell line. As to the kind of experiment: P-STAT6 BEAS-2B + IL-13 cell assay. It counts as cell-based. Particulars: BEAS2B cells, IL13 stimulation, read-out: Cellular JAK1 PSTAT6 BEAS2B + IL13. Here is the method: In order to study the effect of JAK1 inhibitors in a cell line that is relevant to the cell biology of human asthma, an IL-13-stimulated STAT6 phosphorylation assay in the human lung bronchial epithelial BEAS-2B cell line was developed.
BEAS-2B cells (ATCC′ CRL-9609™) were grown in Bronchial Epithelial Growth Medium (BEGM) (Lonza Catalog No. CC-3170; Walkersville, MD; or PromoCell Catalog No. C-21060; Heidelberg, Germany). Test compound stock solutions (0.5 mM in DMSO) were serially diluted 1:2 in DMSO to generate a 10-point concentration curve (at 500× test concentration), which was further diluted by a 50-fold dilution step in BEGM to generate a 10× concentration curve (in 2% DMSO). Cells were plated at 100,000 cells/well in 200 μL of BEGM in 96-well plates and incubated for 48 hours at 37° C. in a humidified incubator. Medium was aspirated from the cells and replaced with 70 μL of fresh BEGM. Diluted test compound (10 μL; or 2% DMSO in assay medium) was added to the cells, and the plates were incubated for 1 hour at 37° C. in a humidified incubator. Twenty μL of 250 ng/mL human recombinant IL-13 (Bio Techne Catalog No. 213-ILB) was then added to the cells and incubated for 15 minutes at 37° C. Medium was aspirated from the cells and 60 μL of ice-cold 1× cell lysis buffer (Cell Signaling Technologies; Catalog No. 9803S) containing 1 mM PMSF was added to the cells. Assay plates were incubated at −80° C. for at least 1 hour. P-STAT6 was measured by coating GAR plates (MSD; Catalog No. L45RA-1) with rabbit anti-human total STAT6 antibody (Cell Signaling Technologies; Catalog No. 9362S), incubating the cell lysates in the coated plates overnight at 4° C., and then detecting with mouse anti-phospho-STAT6 (Tyr641) Clone 16E12 antibody (Millipore; Catalog No. 05-590, custom labeled by MSD with SULFO-tag) using standard MSD plate processing, washing, and detection protocols. Plates were read on the MESO SECTOR 5600.
Data analysis was performed by subtracting negative control values from all wells and determining percent of control using the positive control values; the IC50 was determined with a four-parameter logistic fit model as shown in Equation 4.

Assay [3] addresses T1, recombinant human JAK1 kinase domain protein (Residues 854-1154) (Homo sapiens, UniProt P23458).
T1 construct: human JAK1 kinase domain protein (Residues 854-1154); purchased Proteros Biostructures GmbH (Martinsried, Germany); host or cells: insect cells
As to the kind of experiment: JAK1 biochemical assay (LabChip mobility shift, Ki). Particulars: read-out: Biochem JAK1 Ki.

Where two headings read alike, the source gives them in different places.

What is called Ki is a dissociation constant, usually derived from enzyme kinetics or from competition with a known ligand.

Sequence of Recombinant human JAK2 kinase domain protein (Residues 812-1132) (O60674 812-1132): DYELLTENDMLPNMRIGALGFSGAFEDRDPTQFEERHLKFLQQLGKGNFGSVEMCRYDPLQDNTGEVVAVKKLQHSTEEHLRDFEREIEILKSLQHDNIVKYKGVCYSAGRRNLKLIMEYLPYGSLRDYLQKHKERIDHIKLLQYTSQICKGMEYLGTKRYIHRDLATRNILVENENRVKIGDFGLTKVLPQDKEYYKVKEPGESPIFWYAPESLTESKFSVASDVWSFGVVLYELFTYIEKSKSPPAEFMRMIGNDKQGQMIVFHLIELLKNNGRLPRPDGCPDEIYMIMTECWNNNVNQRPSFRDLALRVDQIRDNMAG
T1 sequence (P23458 854-1154): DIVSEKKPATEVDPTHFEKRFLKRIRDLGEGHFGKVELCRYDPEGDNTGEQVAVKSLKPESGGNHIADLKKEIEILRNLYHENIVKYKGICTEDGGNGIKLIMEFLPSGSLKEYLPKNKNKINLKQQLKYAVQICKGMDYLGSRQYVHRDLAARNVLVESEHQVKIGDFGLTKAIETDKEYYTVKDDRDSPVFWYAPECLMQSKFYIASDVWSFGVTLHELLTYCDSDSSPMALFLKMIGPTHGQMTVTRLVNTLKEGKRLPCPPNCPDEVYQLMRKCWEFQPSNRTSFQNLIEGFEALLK

With `NCc1ccccc1Oc1ccc(OC(F)F)c(-c2n[nH]cc2NC(=O)c2cnn3cccnc23)c1` [Example 7, N-[3-[5-[2-(aminomethyl)phenoxy]-2-(difluoromethoxy)phenyl]-1H-pyrazol-4-yl]pyrazolo[1,5-a]pyrimidine-3-carboxamide], the Ki was determined as 1900 pM in assay [1] (Biochem JAK2 Ki) and 1500 pM in assay [3]. For the same compound, the IC50 in assay [2] (Homo sapiens, BEAS-2B) was found to be 360000 pM.

As for `CN1CC[C@@H](O)[C@H](n2cc(Oc3ccc(OC(F)F)c(-c4nn(C)cc4NC(=O)c4cnn5cccnc45)c3)cn2)C1` (stereo in doubt) [Example 185, N-[3-[2-(difluoromethoxy)-5-[1-[rac-(3R,4R)-4-hydroxy-l-methyl-3-piperidyl]pyrazol-4-yl]oxy-phenyl]-1-methyl-pyrazol-4-yl]pyrazolo[1,5-a]pyrimidine-3-carboxamide], the Ki in assay [1] (Biochem JAK2 Ki) was 210 pM; in assay [3] it was 330 pM. The IC50 in assay [2] (Homo sapiens, BEAS-2B) turned out to be 62000 pM.

For `Cc1ccc(Oc2ccc(OC(F)F)c(-c3nn(CC4CCCN4C)cc3NC(=O)c3cnn4cccnc34)c2)cc1C(=O)N(C)C` (racemic) [Example 51, N-[3-[2-(difluoromethoxy)-5-[3-(dimethylcarbamoyl)-4-methyl-phenoxy]phenyl]-1-[[rac-(2R)-1-methylpyrrolidin-2-yl]methyl]pyrazol-4-yl]pyrazolo[1,5-a]pyrimidine-3-carboxamide], the Ki in assay [1] (Biochem JAK2 Ki) was 1800 pM; in assay [3], 1300 pM. Moreover, the IC50 in assay [2] (Homo sapiens, BEAS-2B) amounted to 45000 pM.

Turning to `Cc1n[nH]cc1Oc1ccc(OC(F)F)c(-c2nn(C)cc2NC(=O)c2cnn3cccnc23)c1` [Example 151, N-[3-[2-(difluoromethoxy)-5-[(3-methyl-1H-pyrazol-4-yl)oxy]phenyl]-1-methy1-pyrazol-4-yl]pyrazolo[1,5-a]pyrimidine-3-carboxamide], the Ki in assay [1] (Biochem JAK2 Ki) amounted to 200 pM; in assay [3], 290 pM. In addition, the IC50 in assay [2] (Homo sapiens, BEAS-2B) stood at 19000 pM.

For the compound `Cn1cc(NC(=O)c2cnn3cccnc23)c(-c2cc(Oc3cccc(C(=O)N4CCC(N5CCOCC5)CC4)c3)ccc2OC(F)F)n1` [Example 81, N-[3-[2-(difluoromethoxy)-5-[3-(4-morpholinopiperidine-1-carbonyl)phenoxy]phenyl]-1-methyl-pyrazol-4-yl]pyrazolo[1,5-a]pyrimidine-3-carboxamide], the results for the Ki in assay [1] (Biochem JAK2 Ki) and in assay [3] were 480 pM and 470 pM, respectively. The IC50 in assay [2] (Homo sapiens, BEAS-2B) was found to be 26000 pM.

In the case of `CN(CCO)Cc1cccc(Oc2ccc(OC(F)F)c(-c3nn(C)cc3NC(=O)c3cnn4cccnc34)c2)c1` [Example 22], the results for the Ki in assay [1] (Biochem JAK2 Ki) and in assay [3] were 310 pM and 340 pM, respectively. Besides, the IC50 in assay [2] (Homo sapiens, BEAS-2B) worked out at 22000 pM.

Turning to `CN1CCOC(c2cccc(Oc3ccc(OC(F)F)c(-c4nn(C)cc4NC(=O)c4cnn5cccnc45)c3)c2)C1` (stereo not drawn) [Example 30, N-[3-[2-(difluoromethoxy)-5-[3-(4-methylmorpholin-2-yl)phenoxy]phenyl]-1-methyl-pyrazol-4-yl]pyrazolo[1,5-a]pyrimidine-3-carboxamide], the inhibition constant (Ki) in assay [1] (Biochem JAK2 Ki) was found to be 560 pM; in assay [3], 930 pM. Besides, in assay [2] (Homo sapiens, BEAS-2B), the IC50 was determined as 40000 pM.

With `CN1CCN(C(=O)c2cccc(Oc3ccc(OC(F)F)c(-c4nn(C)cc4NC(=O)c4cnn5cccnc45)c3)c2)CC1` [Example 84, N-[3-[2-(difluoromethoxy)-5-[3-(4-methylpiperazine-1-carbonyl)phenoxy]phenyl]-1-methyl-pyrazol-4-yl]pyrazolo[1,5-a]pyrimidine-3-carboxamide], the inhibition constant (Ki) in assay [1] (Biochem JAK2 Ki) turned out to be 470 pM; in assay [3], 480 pM. In assay [2] (Homo sapiens, BEAS-2B), the IC50 amounted to 74000 pM.

On to `Cn1cc(NC(=O)c2cnn3cccnc23)c(-c2cc(Oc3cccc(C4(F)CNC4)c3)ccc2OC(F)F)n1` [Example 70, N-[3-[2-(difluoromethoxy)-5-[3-(3-fluoroazetidin-3-yl)phenoxy]phenyl]-1-methyl-pyrazol-4-yl]pyrazolo[1,5-a]pyrimidine-3-carboxamide], for which the figures for the Ki in assay [1] (Biochem JAK2 Ki) and in assay [3] were 260 pM and 270 pM, respectively. Also, in assay [2] (Homo sapiens, BEAS-2B), the IC50 is 23000 pM.

As to `CN1CCN(C(=O)Cc2ccc(Oc3ccc(OC(F)F)c(-c4nn(C)cc4NC(=O)c4cnn5cccnc45)c3)cc2)CC1` [Example 146, N-[3-[2-(difluoromethoxy)-5-[4-[2-(4-methylpiperazin-1-yl)-2-oxo-ethyl]phenoxy]phenyl]-1-methyl-pyrazol-4-yl]pyrazolo[1,5-a]pyrimidine-3-carboxamide], the inhibitory constant (Ki) in assay [1] (Biochem JAK2 Ki) came out at 290 pM; in assay [3], 620 pM. Moreover, the IC50 in assay [2] (Homo sapiens, BEAS-2B) was determined as 40000 pM.

Consider `CN1CCc2cc(Oc3ccc(OC(F)F)c(-c4nn(C)cc4NC(=O)c4cnn5cccnc45)c3)ccc2C1` [Example 64, N-[3-[2-(difluoromethoxy)-5-[(2-methyl-3,4-dihydro-1H-isoquinolin-6-yl)oxy]phenyl]-1-methyl-pyrazol-4-yl]pyrazolo[1,5-a]pyrimidine-3-carboxamide], for which the inhibition constant (Ki) came out at 570 pM in assay [1] (Biochem JAK2 Ki) and 1700 pM in assay [3]. For the same compound, the IC50 in assay [2] (Homo sapiens, BEAS-2B) came out at 59000 pM.

For the compound `CN1CC(O)(c2cccc(Oc3ccc(OC(F)F)c(-c4n[nH]cc4NC(=O)c4cnn5cccnc45)c3)c2)C1` [Example 138, N-[3-[2-(difluoromethoxy)-5-[3-(3-hydroxy-l-methyl-azetidin-3-yl)phenoxy]phenyl]-1H-pyrazol-4-yl]pyrazolo[1,5-a]pyrimidine-3-carboxamide], the results for the inhibition constant (Ki) in assay [1] (read-out: Biochem JAK2 Ki) and in assay [3] were 400 pM and 550 pM, respectively. In addition, the IC50 in assay [2] worked out at 150000 pM.

As to `CC(C)(C#N)c1ccc(Oc2ccc(OC(F)F)c(-c3n[nH]cc3NC(=O)c3cnn4cccnc34)c2)cc1` [Example 67, N-[3-[5-[4-(1-cyano-1-methyl-ethyl)phenoxy]-2-(difluoromethoxy)phenyl]-1H-pyrazol-4-yl]pyrazolo[1,5-a]pyrimidine-3-carboxamide], the Ki amounted to 1200 pM in assay [1] (Biochem JAK2 Ki) and 2100 pM in assay [3]. Besides, the IC50 in assay [2] (Homo sapiens, BEAS-2B) was determined as 25000 pM.

As for `NCc1ccnn1-c1cccc(Oc2ccc(OC(F)F)c(-c3n[nH]cc3NC(=O)c3cnn4cccnc34)c2)c1` [Example 65, N-[3-[5-[3-[5-(aminomethyl)pyrazol-1-yl]phenoxy]-2-(difluoromethoxy)phenyl]-1H-pyrazol-4-yl]pyrazolo[1,5-a]pyrimidine-3-carboxamide], the results for the inhibition constant (Ki) in assay [1] (Biochem JAK2 Ki) and in assay [3] were 630 pM and 850 pM, respectively. Moreover, in assay [2] (Homo sapiens, BEAS-2B), the IC50 was 120000 pM.

Consider `Cn1cc(NC(=O)c2cnn3cccnc23)c(-c2cc(Oc3cccc([C@@H]4COCCN4)c3)ccc2OC(F)F)n1` (stereo in doubt) [Example 32, N-[3-[2-(difluoromethoxy)-5-[3-[rac-(3R)-morpholin-3-yl]phenoxy]phenyl]-1-methyl-pyrazol-4-yl]pyrazolo[1,5-a]pyrimidine-3-carboxamide], for which the Ki in assay [1] (Biochem JAK2 Ki) was determined as 390 pM; in assay [3] it was 670 pM. Moreover, the IC50 in assay [2] (Homo sapiens, BEAS-2B) is 46000 pM.

Turning to `CC(N)c1cccc(Oc2ccc(OC(F)F)c(-c3n[nH]cc3NC(=O)c3cnn4cccnc34)c2)c1` (stereo not drawn) [Example 14, N-[3-[5-[3-(1-aminoethyl)phenoxy]-2-(difluoromethoxy)phenyl]-1H-pyrazol-4-yl]pyrazolo[1,5-a]pyrimidine-3-carboxamide], the figures for the inhibition constant Ki in assay [1] (Biochem JAK2 Ki) and in assay [3] were 380 pM and 250 pM, respectively. For the same compound, the IC50 in assay [2] (Homo sapiens, BEAS-2B) was determined as 26000 pM.
